Data on five compounds can be found in US20100082097A1, “Article Containing Segregated Biguanide and Lewis Acid” (priority 2008, published 2010).

Molecules are shown by their SMILES.

Assay type in all cases: physicochemical
A short description of series [1]: CHA stability in polyurethane films containing no GV (HPLC). The following applies: vacuum dried and humidified films, 25, 35, 45, 55° C., 20 day incubation. The protocol:
(§1) Degradation is reported in the following examples as measured by HPLC as peak area of the degradant peak divided by the total peak area of the chlorhexidine peak and the degradant peak (i.e. Peak Areadegradant/[Peak Areadegradant+Peak Areachlorhexidine]*100). The peak areas are determined from integration of chromatograms.
(§2) A high pressure liquid chromatography (HPLC) analytical method was developed to quantify Gentian violet and chlorhexidine. Both compounds have ultraviolet or visible wavelength absorbance, and so were characterized using a UV-Vis diode array detector. Chlorhexidine and Gentian violet are identified by retention times versus a set of external standards. The external standards also form a calibration curve that is used to quantify the chlorhexidine and Gentian violet content in samples. The method is summarized as follows:
The sample preparation method, prior to HPLC analysis, is summarized as follows: samples were placed in centrifuge tubes, to which a volume of tetrahydrofuran (THF) was added (according to cited protocols or per examples). The tubes were vortexed until the sample was completely dissolved. […]
Samples were analyzed post air drying and post 20 day incubation. […]

Series [2] in a line: CHA stability in polyurethane films after ethylene oxide (ETO) sterilization. Conditions: polyurethane films containing only CHA. The protocol: as §1, §2
The sample preparation method, prior to HPLC analysis, is summarized as follows: samples were placed in centrifuge tubes, to which a volume of tetrahydrofuran (THF) was added (according to cited protocols or per examples). The tubes were vortexed until the sample was completely dissolved. For samples used as medical device coatings where a polymer was also present, a volume of deionized water was then added and the tubes were again vortexed for 10 minutes to precipitate the any polymer in the sample. […]

Series [3] in a line: Brilliant Green-Chlorhexidine formulation in DMF/THF solvent mixture, observation of solution. Conditions: 40/60 THF/DMF, with BG, room temperature. The protocol:
In this experiment 40/60 THF/DMF solvent mixture was used instead of THF/Methanol from Example 17. Different Brilliant green (BG) concentrations (0.1 wt %-1.0 wt %) were added per the Table 5 below to an aliquot of the polymer-CHA solution (in Example 17) and stirred until Brilliant Green dissolved: […]

Series [4] is described as follows: Brilliant Green-Chlorhexidine formulation in THF/Methanol solvent mixture, observation of solution. The following applies: with BG, room temperature. The protocol:
1.04 g Tecoflex 60D and 3.28 g Tecoflex 93A in 65 g were added in a glass jar containing 65 g of Tetrahydrofuran and stirred for four (4) hours at 45° C. Once all resin solids have dissolved, 23 g methanol added into the mixture and stirred for one (1) hour. 2.939 g chlorhexidine diacetate (CHA) was added into the solution mixture and stirred overnight at room temperature. Different Brilliant green (BG) concentrations (0.1 wt %-1.0 wt %) were added per the Table 4 below to an aliquot of the polymer-CHA solution and stirred until Brilliant Green dissolved:
Table 5 below lists different formulations of BG and CHA.

Series [5] in a line: GV stability in polyurethane films containing no CHA (HPLC).
From the text: as §2
The sample preparation method, prior to HPLC analysis, is summarized as follows: samples were placed in centrifuge tubes, to which a volume of tetrahydrofuran (THF) was added (according to cited protocols or per examples). The tubes were vortexed until the sample was completely dissolved. For samples used as medical device coatings where a polymer was also present, a volume of deionized water was then added and the tubes were again vortexed for 10 minutes to precipitate the any polymer in the sample. The tubes were then centrifuged for 10 minutes at 4000 RPM to spin the polymer down out of the solution. A small amount of supernatant was transferred to an HPLC vial for analysis.
Polyurethane films, used in the studies described in examples 4-6 and 9-11, were prepared as follows: 500 g of coating solution was prepared by dissolving 3.74% (w/w) Tecoflex 93A resin and 1.17% (w/w) Tecoflex 60D resin in a 74/26% mixture of THF/Methanol. The mixture was stirred until all of the resin was completely dissolved. 3.07% (w/w) chlorhexidine diacetate (CHA) was then added to the coating solution. Solutions containing different concentrations of GV were made by adding 0.1, 0.2, 0.4, 0.6, 0.8 or 1.0% (w/w) GV to 50 g aliquots of the CHA containing coating solution (or resin only solution in the case of GV only coating solution). 0.5 g of the CHA only, GV only, or 0.1-1.0% GV/CHA solutions was added to the bottom of a 30 mL glass vial and allowed to dry under ambient conditions overnight to evaporate the solvent and cast films in the vials. Vacuum dried samples were prepared by further drying the film containing vials at 25° C. under 30 in, Hg for 48 hours. Humidified samples were prepared by adding 75 μL of deionized water to the air dried samples and capping for the duration of the studies.
Gentian violet only films were prepared according to example 2. Half of the vials were then spiked with 75 μL of deionized water and capped to create a 100% humidity environment, while the other half were vacuum dried ([…]) at 25° C. for 48 hours. The vials were then incubated in an oven at 25° C., 35° C., 45° C., and 55° C. for 20 days.
Samples were analyzed post air drying and post 20 day incubation. Sample analysis was performed using the method in Example 1.
Peak area ratios for pararosaniline chlorides are shown in Table 3 at different temperatures for 20 days. The peak area ratios for each temperature are calculated as follows: (Individual peak area)/Σ(individual peak)×100%. The variations are within the limits of experimental error further confirming the stability of GV in polyurethane films containing only GV.

Regarding `CC(=O)O.CC(=O)O.NC(=N\CCCCCC/N=C(N)/N=C(\N)Nc1ccc(Cl)cc1)/N=C(\N)Nc1ccc(Cl)cc1` [CHA, chlorhexidine diacetate], in series [1], the “degradation peaks in the chromatograms” value was “no degradation peaks”. The “stability when ETO sterilized” value in series [2] was “stable when sterilized”. The “stirring time after which chlorhexidine diacetate precipitated” value in series [3] and in series [4] was 30 min throughout.
For `CN(C)c1ccc(C(=C2C=CC(=[N+](C)C)C=C2)c2ccc(N(C)C)cc2)cc1` [GV, hexa-methyl pararosaniline chloride, reference compound], the “degradation products detected in the chromatograms” value in series [5] (vacuum dried and humidified GV only films, 25-55° C., 20 days) is recorded as “no degradation products were detected”.
For `CN(C)c1ccc(C(=C2C=CC(=[N+](C)C)C=C2)c2ccc(N(C)C)cc2)cc1.[Cl-]` [Hexamethyl, hexamethylpararosaniline chloride], the “Peak area ratio for pararosaniline chlorides” value (“Peak area ratio” for short) in series [5] (0 day control) is 42%; in series [5] (25° C. at day 20), 43%; in series [5] (35° C. at day 20), 44%; in series [5] (45° C. at day 20), 42%; in series [5] (55° C. at day 20) it was 45%.
On to `CN=C1C=CC(=C(c2ccc(N(C)C)cc2)c2ccc(N(C)C)cc2)C=C1.Cl` [Pentamethyl, pentamethylpararosaniline chloride], for which the “Peak area ratio” value in series [5] (0 day control) was determined as 44%; in series [5] (25° C. at day 20), 43%; in series [5] (35° C. at day 20), 43%; in series [5] (45° C. at day 20), 44%; in series [5] (55° C. at day 20), 43%.
In the case of `CN(C)c1ccc(C(=C2C=CC(=[N+](C)C)C=C2)c2ccc(N)cc2)cc1.[Cl-]` [Tetramethyl, tetramethylpararosaniline chloride], the “Peak area ratio” value in series [5] (0 day control) is on record as 14%; in series [5] (25° C. at day 20), 14%; in series [5] (35° C. at day 20) it was 13%; in series [5] (45° C. at day 20), 14%; in series [5] (55° C. at day 20), 12%.
